Measurements reported in patent publication US20240018150A1.

Tests used:
[1] = tested on: Ba/F3-BCR-BTK-C481S cells; test: Cell assay, in-vitro inhibition of Ba/F3-BCR-BTK-C481S cells (CellTiter-Glo); format: cell-based; details: 2000 cells/well, 72 hrs, read-out: Ba/F3-BCR-BTK-C481S (IC50, in-vitro inhibitory test on cells)
Procedure: (§1) Plating: The cells were suspended in serum-free medium and counted with automatic cell counter. According to the seeding density, the cell suspension was diluted to the required density. 95 μL cell (2000 cells/well) was added to each well, and incubated at 5% CO2 and 37° C.
(§2) Preparation of compound solution: The compound was prepared into a diluted solution of 1000× final concentration with dimethyl sulfoxide. The test concentrations of the compound were 10000, 3333.33, 1111.11, 370.37, 123.46, 41.15, 13.72, 4.57, 1.52, and 0.51 nM. The compound was diluted with the culture medium to prepare a compound solution of 20× final concentration. 5 uL of the compound solution was added to each well, and the same volume of dimethyl sulfoxide was added to the control well. The cells were incubated at 37° C. and 5% CO2 for 72 hrs.
(§3) Detection: The cell plate equilibrated to room temperature, 40 μl of CellTiter-Glo® reagent was added to each well, shaken for 2 min, allowed to stand for 10 min, and detected with SpectraMax Paradigm.
(§4) Data Analysis • (1) The IC50 value was calculated using GraphPad Prism 5. • (2) % Inh=(Max signal−Compound signal)/(Max signal−Min signal)×100. • (3) Max signal was a value of the positive control well in which only DMSO of the same volume with the compound solution was present. • (4) Min signal was a value of the negative control well in which only the culture medium was present.

TMD8 cells = test: Cell assay, in-vitro inhibition of TMD8 cells (CellTiter-Glo); format: cell-based; details: Homo sapiens, 2000 cells/well, 72 hrs, read-out: TMD8 (IC50, in-vitro inhibitory test on cells)
Procedure: as §1, §2, §3, §4

BTK kinase = BTK kinase (Homo sapiens, UniProt Q06187); test: Inhibitory activity test on BTK kinase (electrophoretic mobility shift assay); format: biochemical; details: Caliper EZ ReaderII, enzyme and compound 10 min at room temperature, read-out: BTK (IC50, in-vitro inhibitory test on kinase)
Sequence of BTK kinase (Q06187 whole entry): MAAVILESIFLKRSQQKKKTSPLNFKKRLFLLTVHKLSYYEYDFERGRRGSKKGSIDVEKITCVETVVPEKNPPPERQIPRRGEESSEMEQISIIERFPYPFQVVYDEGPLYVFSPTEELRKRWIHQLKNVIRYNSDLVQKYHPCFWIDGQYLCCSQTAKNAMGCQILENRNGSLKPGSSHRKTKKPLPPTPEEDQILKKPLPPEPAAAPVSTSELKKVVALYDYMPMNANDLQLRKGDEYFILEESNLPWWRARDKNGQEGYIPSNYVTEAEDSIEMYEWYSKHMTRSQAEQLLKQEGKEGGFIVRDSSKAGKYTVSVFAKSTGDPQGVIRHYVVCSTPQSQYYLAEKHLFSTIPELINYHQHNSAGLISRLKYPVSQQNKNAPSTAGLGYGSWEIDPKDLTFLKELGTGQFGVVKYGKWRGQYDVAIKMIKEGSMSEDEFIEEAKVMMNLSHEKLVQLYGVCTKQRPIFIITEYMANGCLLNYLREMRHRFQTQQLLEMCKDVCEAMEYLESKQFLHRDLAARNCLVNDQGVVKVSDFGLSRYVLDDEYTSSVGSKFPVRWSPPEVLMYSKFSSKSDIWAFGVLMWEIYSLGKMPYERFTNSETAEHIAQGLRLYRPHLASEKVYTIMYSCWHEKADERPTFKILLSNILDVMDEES

In the case of `O=C(c1ccc(Oc2ccccc2)cc1Cl)c1c[nH]c2ncnc(N[C@@H]3CC[C@@H](CO)OC3)c12` [ARQ531, reference compound], the IC50 [1] is reported as 447 nM and the IC50 (TMD8 cells) is reported as 111 nM.

For `O=C(c1ccc(Oc2ccccc2)cc1Cl)c1c[nH]c2nccc(N[C@H]3CC[C@H](C(=O)O)CC3)c12` [Compound I-5, (1r, 4r)-4-((3-(2-chloro-4-phenoxybenzoyl)-1H-pyrrolo[2,3-b]pyridin-4-yl)amino)cyclohexane-1-carboxylic acid], the IC50 (BTK kinase) was 9 nM.

With `O=C(c1ccc(Oc2ccccc2)cc1Cl)c1c[nH]c2nccc(N[C@H]3CC[C@@H](C(=O)O)CC3)c12` [Compound I-6, (1s, 4s)-4-((3-(2-chloro-4-phenoxybenzoyl)-1H-pyrrolo[2,3-b]pyridin-4-yl)amino)cyclohexane-1-carboxylic acid] the IC50 (BTK kinase) was 2.7 nM.

Compound `O=C(c1ccc(Oc2ccccc2)cc1)c1c[nH]c2nccc(N[C@H]3CC[C@@H](C(=O)O)CC3)c12` [Compound I-8, (1s, 4s)-4-((3-(4-phenoxybenzoyl)-1H-pyrrolo[2,3-b]pyridin-4-yl)amino)cyclohexane-1-carboxylic acid] has an IC50 (BTK kinase) of 7.1 nM.

`O=C(c1ccc(Oc2ccccc2)cc1Cl)c1c[nH]c2nccc(N[C@H]3C[C@@H](C(=O)O)C3)c12` [Compound I-11, (1s, 3s)-3-((3-(2-chloro-4-phenoxybenzoyl)-1H-pyrrolo[2,3-b]pyridin-4-yl)amino)cyclobutane-1-carboxylic acid] gave an IC50 (BTK kinase) of 6.2 nM.

With `O=C(c1ccc(Oc2ccccc2)cc1Cl)c1c[nH]c2nccc(NC3CCNCC3)c12` [Compound I-22, (2-chloro-4-phenoxyphenyl)(4-(piperidin-4-ylamino)-1H-pyrrolo[2,3-b]pyridin-3-yl)methanone] the IC50 (BTK kinase) was 9.5 nM.

`O=C(c1ccc(Oc2ccccc2)cc1Cl)c1c[nH]c2nccc(N[C@@H]3CCCNC3)c12` [Compound I-23, (R)-(2-chloro-4-phenoxyphenyl)(4-(piperidin-3-ylamino)-1H-pyrrolo[2,3-b]pyridin-3-yl)methanone] gave an IC50 (BTK kinase) of 48 nM.

With `O=C(c1ccc(Oc2ccccc2)cc1Cl)c1c[nH]c2nccc(N[C@H]3CC[C@H](O)CC3)c12` [Compound I-24, (2-chloro-4-phenoxyphenyl)(4-(((1r, 4r)-4-hydroxycyclohexyl)amino)-1H-pyrrolo[2,3-b]pyridin-3-yl)methanone] the IC50 (BTK kinase) was 52 nM.

In the case of `O=C(c1ccc(Oc2ccccc2)cc1Cl)c1c[nH]c2nccc(NCCOCCO)c12` [Compound I-28, (2-chloro-4-phenoxyphenyl)(4-((2-(2-hydroxyethoxy)ethyl)amino)-1H-pyrrolo[2,3-b]pyridin-3-yl)methanone], the IC50 (BTK kinase) is reported as 110 nM.

Work on `O=C(c1ccc(Oc2ccccc2)cc1Cl)c1c[nH]c2nccc(N[C@H]3CC[C@H](CO)CC3)c12` [Compound I-30, (2-chloro-4-phenoxyphenyl)(4-(((1r, 4r)-4-(hydroxymethyl)cyclohexyl)amino)-1H-pyrrolo[2,3-b]pyridin-3-yl)methanone] yielded an IC50 (BTK kinase) of 95 nM.

With `O=C(c1ccc(Oc2ccccc2)cc1Cl)c1c[nH]c2nccc(N[C@H]3CC[C@@H](CO)CC3)c12` [Compound I-31, (2-chloro-4-phenoxyphenyl)(4-(((1s, 4s)-4-(hydroxymethyl)cyclohexyl)amino)-1H-pyrrolo[2,3-b]pyridin-3-yl)methanone] the IC50 (BTK kinase) was 28 nM.

`O=C(c1ccc(Oc2ccccc2)cc1Cl)c1c[nH]c2nccc(N[C@@H]3CC[C@@H](CO)OC3)c12` [Compound I-32, (2-chloro-4-phenoxyphenyl)(4-(((3R, 6S)-6-(hydroxymethyl)tetrahydro-2H-pyran-3-yl)amino)-1H-pyrrolo[2,3-b]pyridin-3-yl)methanone] was tested, and the IC50 (BTK kinase) was 11 nM.

`O=C(c1ccc(Oc2ccccc2)cc1)c1c[nH]c2nccc(N[C@H]3CC[C@@H](CO)CC3)c12` [Compound I-33, (4-(((1s, 4s)-4-(hydroxymethyl)cyclohexyl)amino)-1H-pyrrolo[2,3-b]pyridin-3-yl)(4-phenoxyphenyl)methanone] showed an IC50 (BTK kinase) of 80 nM.

For `CNC(=O)[C@H]1CC[C@H](Nc2ccnc3[nH]cc(C(=O)c4ccc(Oc5ccccc5)cc4Cl)c23)CC1` [Compound I-35, (1r, 4r)-4-((3-(2-chloro-4-phenoxybenzoyl)-1H-pyrrolo[2,3-b]pyridin-4-yl)amino)-N-methylcyclohexane-1-carboxamide], the IC50 (BTK kinase) was 22 nM.

Work on `NS(=O)(=O)N1CCC(Nc2ccnc3[nH]cc(C(=O)c4ccc(Oc5ccccc5)cc4Cl)c23)CC1` [Compound I-37, 4-((3-(2-chloro-4-phenoxybenzoyl)-1H-pyrrolo[2,3-b]pyridin-4-yl)amino)piperidin-1-sulfonamide] yielded an IC50 (BTK kinase) of 141 nM.

`CS(=O)(=O)N1CCC(Nc2ccnc3[nH]cc(C(=O)c4ccc(Oc5ccccc5)cc4Cl)c23)CC1` [Compound I-38, (2-chloro-4-phenoxyphenyl)(4-((1-(methanesulfonyl)piperidin-4-yl)amino)-1H-pyrrolo[2,3-b]pyridin-3-yl)methanone] gave an IC50 (BTK kinase) of 242 nM.

`N[C@H]1CC[C@H](Nc2ccnc3[nH]cc(C(=O)c4ccc(Oc5ccccc5)cc4Cl)c23)CC1` [Compound I-73, (4-(((1r, 4r)-4-aminocyclohexyl)amino)-1H-pyrrolo[2,3-b]pyridin-3-yl)(2-chloro-4-phenoxyphenyl)methanone] gave an IC50 (BTK kinase) of 16 nM.

Work on `N[C@H]1CC[C@@H](Nc2ccnc3[nH]cc(C(=O)c4ccc(Oc5ccccc5)cc4Cl)c23)CC1` [Compound I-74, (4-(((1s, 4s)-4-aminocyclohexyl)amino)-1H-pyrrolo[2,3-b]pyridin-3-yl)(2-chloro-4-phenoxyphenyl)methanone] yielded an IC50 (BTK kinase) of 2.8 nM, an IC50 [1] of 52 nM and an IC50 (TMD8 cells) of 65.9 nM.

`CC(=O)N[C@H]1CC[C@@H](Nc2ccnc3[nH]cc(C(=O)c4ccc(Oc5ccccc5)cc4Cl)c23)CC1` [Compound I-87, N-((1s, 4s)-4-((3-(2-chloro-4-phenoxybenzoyl)-1H-pyrrolo[2,3-b]pyridin-4-yl)amino)cyclohexyl)acetamide] was tested, and the IC50 [1] was 103 nM and the IC50 (TMD8 cells) was 114 nM.

Work on `CN[C@H]1CC[C@@H](Nc2ccnc3[nH]cc(C(=O)c4ccc(Oc5ccccc5)cc4Cl)c23)CC1` [Compound I-89] yielded an IC50 [1] of 68.6 nM and an IC50 (TMD8 cells) of 97.7 nM.
